The record followed here is patent US7927632B2, “Compositions for sterilizing spores of spore-forming microorganisms comprising the extracts of torilidis fructus” (CJ Cheiljedang Corporation, priority 2005, dated 2011).

The test system of the assay is spores of Bacillus subtilis. The assay is described as follows: Sterilization effect on Bacillus subtilis spores by total viable cell count. The settings on record: direct mechanism (surfactant ingredients) or indirect mechanism (germination inducers), ingredients acting jointly within the extract.

Experimental: Bacillus subtilis spores were selected for use in an antimicrobial test against a spore-forming microorganism.
Vegetative cells of Bacillus subtilis ATCC 6633 were sub-cultured, streaked onto tryptic soy agar (TSA) plates, and incubated at 30° C. for 48 hrs. The plates were then stored at a low temperature of 5° C. and used as a seed culture. After the seed culture was identified to have no morphological abnormality by microscopic observation, it was spread onto a nutrient agar plate containing magnesium sulfate (NAMS), and incubated at 30° C. for 48 hrs. After 10^10-10^12 spores had emerged, the plate was washed with physiological saline, and the spores were scratched with a platinum loop and transferred into a sterile tube. The spores were then centrifuged at 4° C. at 12,000 rpm for 2 min, and this centrifugation was carried out once more. After being microscopically observed to ensure the state of the spores, the pellet was subjected to on-off ultrasonication for 5 min to destroy only the vegetative cells, and was then centrifuged again. Spore formation was further confirmed by a Dorner method, and the spores were stored at −20° C. until use for an antimicrobial test.
The antimicrobial plant materials were extracted with 75% ethanol, concentrated in a vacuum, and freeze-dried to provide aqueous or powdered antimicrobial materials. […] An antimicrobial test against spores of Bacillus subtilis, the representative spore-forming microorganism, was performed by optical density analysis at 600 nm and by counting of the total number of viable cells grown on a nutrient agar plate.
Optical density analysis is a method of indirectly analyzing the degree of growth of vegetative cells and spores by measuring OD values at 600 nm for vegetative cells and spores cultured in tryptic soy broth (TSB) at 37° C. for 18 hrs. The plant materials were primarily screened for candidates considered effective in sterilization by optical density analysis. Then, the candidates were further assessed for their antimicrobial effects by viable cell count. In detail, a spore suspension was mixed with physiological saline and a natural antimicrobial material (1% final concentration). The mixture was agitated at 30° C. for 3 hrs, and was then centrifuged at 12,000 rpm. After the supernatant, considered to contain the added antimicrobial material, was discarded, the pellet remaining in an Ependorf tube was covered with distilled water and centrifuged again to eliminate residual antimicrobial material. This washing step was repeated three times to obtain only spores treated with a natural antimicrobial material. This was done to evaluate the sterilization effects of the natural antimicrobial materials on pure spore samples.

With `OC[C@@H](O)[C@H](O)[C@@H](O)CO` [xylitol], the “sterilization effect attributed to ingredients of the extract” value (“sterilization effect attributed” below) is given as “about 10^2”. Consider `CC(=O)OC1CC2CCC1(C)C2(C)C` (centres unmarked) [bornyl acetate], for which the “sterilization effect attributed” value was “about 10^1”. The entry for `CC(=O)OC/C=C(\C)CCC=C(C)C` [geranyl acetate] is “about 10^1”. Consider `C[C@H](N)C(=O)O` [alanine], for which the “sterilization effect attributed” value is reported as “about 10^2”.

Take `OC[C@@H](O)[C@@H](O)[C@H](O)[C@H](O)CO` [mannitol]: the “sterilization effect attributed” value was “about 10^2”.
